# Data taken from ChEMBL document CHEMBL3430912, “GSK Tres Cantos Anti-Kinetoplastid Screening (TCAKS) Data”.
# Columns and labels:
# Leishmania donovani [1] = assay: (§1) GSK_TCAKS: pIC50 Leishmania donovani Imaging: THP-1 Host Macrophages. Assay plates (384-well) were prepared by adding 250nL of compound to each well. For single shot assay, the final compound concentration was 5 uM. […] Automated image analysis was performed with a script developed on Acapella High Content Imaging and Analysis Software (PerkinElmer). Output: THP-1 cell count were reported for each well.; type: functional, organism-based, Homo sapiens
# Trypanosoma cruzi [2] = assay: (§2) GSK_TCAKS: pIC50 Trypanosoma cruzi Imaging: Amastigotes/Cell. […] Cells were then washed once with PBS before infection. T. cruzi trypomastigotes, collected at days 5 to 8 after infection from LLC-MK2 parasite infected cultures, were allowed to swim out for 4h at 37C from a centrifuged pellet (2,500 rpm/10 min/room temperature). Trypomastigotes were then collected and counted in a CASY Cell Counter. Trypomastigotes, in supplemented DMEM, were added to H9c2 cultures in a multiplicity of infection of 1 and incubated for 18 h. Cells were washed once with PBS before incubation of the infected H9c2 monolayer with trypsin (Life-Technologies) to detach cells from the flask. Cells were counted in a CASY Cell Counter using a 150 um capillary and their density set at 5 * 10^4 cells per mL in supplemented assay DMEM. Infected H9c2 were dispensed into 384-well poly-lysine coated assay plates at 50uL per well using a Multidrop Combi dispenser. After seeding them, the plates were incubated at 37C, 5% CO2 for 72h. Cultures were then fixed and stained by addition of 50 uL of a solution containing 8% formaldehyde and 4 uM DRAQ5 DNA dye (BioStatus, UK) per well. […] Five images were collected per well for reliable statistical analysis. Automated image analysis was performed with a script developed on Acapella High Content Imaging and Analysis Software (PerkinElmer). Output: number of amastigotes per cell as infection level measurement.; type: functional, organism-based, Rattus norvegicus; details: H9c2, 4 h
# [3] = tested on: Trypanosoma brucei brucei; assay: GSK_TCAKS: pIC50 Trypanosoma brucei viability assay using luminiscence. Assay plates (1536-well) were prepared. T. brucei cultures were harvested and counted in a CASY cell counter. A parasite suspension was prepared at a final concentration of 5 * 10^4 cells/mL in complete HMI9 medium and 6uL was dispensed to all wells containing compounds using a Multidrop Combi dispenser. 6uL of HMI9 media with 0.4% DMSO were dispensed to control columns. Plates were incubated for 24 h at 37C, 5% CO2 then tempered for 10 min at room temperature. ATP content was quantified by adding 4 uL of CellTiter-Glo Reagent (Promega) according to the manufacturer's instructions. Luminescence was measured using a ViewLux.; type: functional, organism-based; details: Lister 427, CASY
# [4] = tested on: Trypanosoma brucei brucei; assay: GSK_TCAKS: pIC50 Trypanosoma brucei viability assay using fluorescence intensity. Assay plates (1536-well) were prepared by dispensing 25nL of compound solution per well using an Echo acoustic dispenser (Labcyte).; type: functional, organism-based; details: Lister 427, 2 h
# Trypanosoma cruzi [5] = assay: as §2, with “H2C9” for “Trypanosoma cruzi”, “H9c2 Host Cardiomyocytes.” for “Amastigotes/Cell.”, “Number” for “number”, “H9c2 Host Cardiomyocytes nuclei to determine drug-related cytotoxicity.” for “amastigotes per cell as infection level measurement.”; type: functional, organism-based, Rattus norvegicus; details: H9c2, 4 h
# [6] = target: Sterol 14-alpha demethylase (Trypanosoma cruzi (strain CL Brener), UniProt Q7Z1V1); assay: GSK_TCAKS: pIC50 CYP51 from Trypanosoma cruzi.; type: functional
# Chain of Sterol 14-alpha demethylase (Q7Z1V1 whole entry): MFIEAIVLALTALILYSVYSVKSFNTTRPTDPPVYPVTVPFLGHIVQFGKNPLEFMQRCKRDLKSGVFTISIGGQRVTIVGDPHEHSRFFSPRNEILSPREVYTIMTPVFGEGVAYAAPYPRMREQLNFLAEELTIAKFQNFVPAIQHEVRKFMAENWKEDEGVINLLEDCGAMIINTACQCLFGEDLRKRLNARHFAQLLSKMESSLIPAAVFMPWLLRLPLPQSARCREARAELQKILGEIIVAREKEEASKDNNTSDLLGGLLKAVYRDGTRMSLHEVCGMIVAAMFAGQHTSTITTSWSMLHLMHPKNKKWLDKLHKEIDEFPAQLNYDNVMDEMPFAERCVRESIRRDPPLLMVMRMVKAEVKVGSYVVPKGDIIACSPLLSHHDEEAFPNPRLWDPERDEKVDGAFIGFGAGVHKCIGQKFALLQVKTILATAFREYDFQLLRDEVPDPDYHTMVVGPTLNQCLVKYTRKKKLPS
# Trypanosoma cruzi [7] = assay: GSK_TCAKS: pIC50 Trypanosoma cruzi viability assay using beta-GAL activity. This assay was run at single shot at 5uM compound concentration per well. The biological reagents consisted of NIH-3T3 host cells and trypomastigotes parasitic cells; both cell types were set to a 3.3 * 10^5 cells/mL dilution in assay DMEM by means of a CASY cell counter device using a 60um capillary. 6 uL of the mixture were dispensed per well (about 1 * 10^3 host-cells and 1 * 10^3 parasites) with a Multidrop Combi dispenser. […] In all wells, the percentage of DMSO never exceeded 0.5%. Plates incubated for four days at 37C, 5% CO2. The substrate used for the assay fluorescence intensity (FLINT) readout was resorufin-beta-D-galactopiranoside (Sigma-Aldrich) at 5uM per well. It was diluted in PBS supplemented with the soft detergent Igepal (Fluka).; type: functional, organism-based, Mus musculus; details: Tulahuen, NIH3T3
# Trypanosoma cruzi [8] = assay: GSK_TCAKS: pIC50 Trypanosoma cruzi Imaging: Infected Cells. […] Cells were then washed once with PBS before infection. T. cruzi trypomastigotes, collected at days 5 to 8 after infection from LLC-MK2 parasite infected cultures, were allowed to swim out for 4h at 37C from a centrifuged pellet (2,500 rpm/10 min/room temperature). Trypomastigotes were then collected and counted in a CASY Cell Counter. Trypomastigotes, in supplemented DMEM, were added to H9c2 cultures in a multiplicity of infection of 1 and incubated for 18 h. Cells were washed once with PBS before incubation of the infected H9c2 monolayer with trypsin (Life-Technologies) to detach cells from the flask. Cells were counted in a CASY Cell Counter using a 150 um capillary and their density set at 5 * 10^4 cells per mL in supplemented assay DMEM. Infected H9c2 were dispensed into 384-well poly-lysine coated assay plates at 50uL per well using a Multidrop Combi dispenser. After seeding them, the plates were incubated at 37C, 5% CO2 for 72h. Cultures were then fixed and stained by addition of 50 uL of a solution containing 8% formaldehyde and 4 uM DRAQ5 DNA dye (BioStatus, UK) per well. […] Five images were collected per well for reliable statistical analysis. Automated image analysis was performed with a script developed on Acapella High Content Imaging and Analysis Software (PerkinElmer). Output: percentage of infected cells per well as a second infection marker.; type: functional, organism-based, Rattus norvegicus; details: H9c2, 4 h
# Leishmania donovani [9] = assay: GSK_TCAKS: pIC50 Leishmania donovani viability assay using fluorescence intensity. Assay plates (1536-well) were prepared by adding 30nL per well of compound. For single shot assay, the final compound concentration was 5uM. […] Briefly, eGFP LdBOB axenic amastigotes were harvested, fixed and counted in a CASY cell counter (Roche-Applied Science). A final concentration of 1.5 * 10^5 cells per well were prepared in amastigote media containing 500 U/mL penicillin/streptomycin (Invitrogen) and 6uL was dispensed to each experimental well using a Multidrop Combi dispenser (Thermo Scientific). 6uL of assay media was dispensed to control columns used as reference for 100% compound response. Following incubation for 72 h at 37C, 5% CO2, 2 uL of resazurin was added to each well at a final concentration of 0.5 mM in phosphate buffered saline (PBS) with IGEPAL (Sigma-Aldrich), 0.05% (v/v).; type: functional, organism-based
# Leishmania donovani [10] = assay: as §1, with “Infected” for “THP-1 Host”, “Percent of infected macrophage cells” for “THP-1 cell count”; type: functional, organism-based, Homo sapiens; details: THP-1
# [11] = GSK_TCAKS: pIC50 HepG2 human cell line viability assay using luminiscence. […] Seeding density was checked to ensure that new mono-layers were not more than 50% confluent at the time of harvesting. Cell suspension was added to 500 mL of the same medium at a final density of 1.2 * 10^5 cells/mL. This cell suspension was dispensed (25 uL, 3000 cells per well) into 384-well clear-bottom plates using a Multidrop Combi dispenser. Prior to addition of the cell suspension, the screening compounds (250 nL) were pre-dispensed into the plates with an Echo liquid handler. Plates were incubated for 48 h at 37C, 5% CO2. After incubation, plates equilibrated at room temperature for 30 min before proceeding to develop the luminescent signal. The signal developer, CellTiter-Glo Reagent, was allowed to equilibrate at room temperature for 30 min and added to the plates (25uL per well) using a Multidrop Combi dispenser. Plates were left for 10 min at room temperature for stabilization and then read using a ViewLux.; type: toxicity, cell-based
# Leishmania donovani [12] = assay: as §1, with “Amastigotes/Macrophages.” for “THP-1 Host Macrophages.”, “Average number of amastigotes per macrophage” for “THP-1”, “cell” for “cell count”; type: functional, organism-based, Homo sapiens; details: THP-1
SMILES,IC50 (Leishmania donovani [1]),IC50 (Trypanosoma cruzi [2]),IC50 [3],IC50 [4],IC50 (Trypanosoma cruzi [5]),IC50 [6],IC50 (Trypanosoma cruzi [7]),IC50 (Trypanosoma cruzi [8]),IC50 (Leishmania donovani [9]),IC50 (Leishmania donovani [10]),IC50 at 48 h [11],IC50 (Leishmania donovani [12])
CC(C)C[C@H](NC(=O)c1csc(-c2cccs2)n1)C(=O)NC1(C#N)CC1,> 50.1 µM,20 µM,0.1 µM,0.158 µM,> 50.1 µM,> 100 µM,25.1 µM,> 50.1 µM,5.01 µM,> 50.1 µM,> 100 µM,> 50.1 µM
CN(C)S(=O)(=O)c1ccc(-c2cnc(N)c(-c3nc4ccc(F)cc4[nH]3)c2)cc1,3.98 µM,> 50.1 µM,1 µM,0.398 µM,1.26 µM,39.8 µM,1.26 µM,> 50.1 µM,2.51 µM,1.58 µM,> 100 µM,0.631 µM
Nc1cc(-c2ccc3ncnc(N4CCOCC4)c3c2)cnc1N,> 50.1 µM,1.58 µM,0.158 µM,0.0501 µM,3.16 µM,79.4 µM,1.58 µM,5.01 µM,3.98 µM,10 µM,> 100 µM,1.26 µM
NC(=O)c1cc(NC(=O)c2ccccc2COc2ccccc2)ccc1Cl,15.8 µM,25.1 µM,> 39.8 µM,15.8 µM,> 50.1 µM,79.4 µM,39.8 µM,31.6 µM,7.94 µM,3.16 µM,> 100 µM,1.58 µM
CC(=O)Nc1cccc(Nc2ncnc3[nH]cnc23)c1,10 µM,25.1 µM,0.398 µM,0.126 µM,> 50.1 µM,> 100 µM,> 50.1 µM,39.8 µM,> 50.1 µM,> 50.1 µM,> 100 µM,39.8 µM
COc1cccc(-c2c(C)nn(-c3nc(N)nc(-c4ccccn4)n3)c2N)c1,> 50.1 µM,0.501 µM,> 39.8 µM,> 39.8 µM,> 50.1 µM,> 100 µM,2.51 µM,2 µM,5.01 µM,2 µM,> 100 µM,1.58 µM
CC(C)c1nn(-c2nc(N)nc(-c3ccccn3)n2)c(N)c1C1CCCCC1,5.01 µM,1.26 µM,7.94 µM,7.94 µM,3.16 µM,3.16 µM,2 µM,1.26 µM,7.94 µM,1 µM,20 µM,0.794 µM
Cc1nn(-c2nc(N)nc(-c3ccccn3)n2)c(C)c1Cc1ccccc1,> 50.1 µM,2 µM,6.31 µM,> 39.8 µM,20 µM,63.1 µM,2.51 µM,3.16 µM,5.01 µM,3.16 µM,> 100 µM,2.51 µM
Cc1occc1C(=O)Nc1ccccc1C(=O)Nc1nccs1,> 50.1 µM,31.6 µM,0.501 µM,0.398 µM,> 50.1 µM,> 100 µM,> 50.1 µM,> 50.1 µM,> 50.1 µM,> 50.1 µM,> 100 µM,> 50.1 µM
